Assay results taken from ChEMBL document CHEMBL4190368, “Synthesis and antimalarial evaluation of artesunate-polyamine and trioxolane-polyamine conjugates” (Eur J Med Chem, 2017).

Tests used:
Plasmodium falciparum = assay: Antiplasmodial activity against chloroquine sensitive Plasmodium falciparum NF54 assessed as reduction in [3H]-hypoxanthine incorporation incubated for 48 hrs by liquid scintillation counting method; assay type: functional, organism-based
L6 = assay: Cytotoxicity in rat L6 cells assessed as reduction in cell viability incubated for 72 hrs by alamar blue dye based assay; settings: L6, 72 h
Plasmodium berghei [1] = assay: Antiplasmodial activity against GFP-transfected Plasmodium berghei ANKA infected in NMRI mouse assessed as reduction in parasitaemia at 50 mg/kg/day, ip for 4 days measured on 24 hrs after last dose by FACS analysis; assay type: functional; set-up: scale not given: the % may be the effect or the level left
Plasmodium berghei [2] = assay: Antiplasmodial activity against GFP-transfected Plasmodium berghei ANKA infected in NMRI mouse assessed as mouse survival at 50 mg/kg/day, ip for 4 days measured up to 30 days; assay type: functional
Plasmodium berghei [3] = assay: Antiplasmodial activity against GFP-transfected Plasmodium berghei ANKA infected in NMRI mouse assessed as reduction in parasitaemia at 100 mg/kg/day, po for 4 days measured on 24 hrs after last dose by FACS analysis; assay type: functional; set-up: scale not given: the % may be the effect or the level left
Plasmodium berghei [4] = assay: Antiplasmodial activity against GFP-transfected Plasmodium berghei ANKA infected in NMRI mouse assessed as mouse survival at 50 mg/kg/day, po for 4 days measured up to 30 days; assay type: functional
[5] = Selectivity index, ratio of IC50 for rat L6 cells to IC50 for chloroquine sensitive Plasmodium falciparum NF54; assay type: toxicity; settings: L6 cells versus Plasmodium falciparum NF54, read-out: Ratio IC50

**Q.** Which results are given for `C[C@H]1[C@H](OC(=O)CCC(=O)NCCCN(CCCCN(CCCNC(=O)CCC(=O)O[C@@H]2O[C@@H]3O[C@@]4(C)CC[C@H]5[C@H](C)CC[C@@H]([C@H]2C)[C@@]35OO4)C(=O)OC(C)(C)C)C(=O)OC(C)(C)C)O[C@@H]2O[C@@]3(C)CC[C@H]4[C@H](C)CC[C@@H]1[C@@]24OO3`?
**A.** IC50 (Plasmodium falciparum): 0.0004 µM; IC50 (L6): 12.1 µM; Activity (Plasmodium berghei [1]): 99.8%; Survival (Plasmodium berghei [2]): 30 days; Activity (Plasmodium berghei [3]): 95.7%; Survival (Plasmodium berghei [4]): 16 to 30 days; selectivity ratio [5]: 30200
